{"source": "patent EP4782431A1", "about": "(Suzhou Merna Therapeutics Co. Ltd, priority 2023, dated 2025)", "assay_type_in_all_cases": "physicochemical", "key": {"[1]": {"test": "competitive suspension tests of crystal forms (XRPD)", "description": "(§1) A 2θ scanning angle of the sample was 3°-40°, a scanning step size was 0.02°, and a scanning time per step was 0.12 s/step. An optical tube voltage and a current were 40 kV and 40 mA, respectively. During sample preparation, an appropriate amount of the sample was placed on a sample tray and flattened with a tool such as a glass slide to ensure a smooth and even surface.\nResulting suspensions were suspended at 5°C, 25°C, and 50°C for 3 days, respectively. The resulting suspensions were centrifuged, and solid portions were detected by XRPD."}, "[2]": {"test": "hygroscopicity by dynamic vapor sorption (DVS)", "conditions": "for 1st adsorption Percentage of weight change / 1st desorption Percentage of weight change / 2nd adsorption Percentage of weight change / 2nd desorption Percentage of weight change: 40-0-95-0-40%RH, 240 min per step", "description": "ProUmid SPSx-1µ Advance was used for analysis of a sample. The sample to be tested was approximately in an amount of 5-50 mg. A temperature in a test chamber was controlled at 25±1°C, a relative humidity cycle was […], a step size was 10%, an equilibrium time was 240 minutes per step, and mass data was recorded every 20 seconds.\nA DVS cycle was 40-0-95-0-40%RH. XRPD detection was performed on samples after the DVS testing to determine whether crystal form transformation occurred."}, "[3]": {"test": "stability of crystal forms (XRPD, HPLC, color)", "conditions": "25°C/92%RH open, 1 week"}, "[4]": {"test": "stability of crystal forms (XRPD, HPLC, color)", "description": "as §1\nAn Agilent 1260 infinityII binary pump was used for solubility and stability testing.\nThe stability of samples under these conditions was detected by XRPD and HPLC, and whether the samples had color changes was observed.\n(§2) A certain amount of the crystal form C of the compound of formula (I) was weighed and placed in an open container at 25°C/92.5%RH for 1 week. A certain amount of the crystal form C of the compound of formula (I) was weighed and placed in a closed container at 60°C for 1 week. The stability of samples under these conditions was detected by XRPD and HPLC, and whether the samples had color changes was observed. Table 16 Stability test results of the crystal form C of the compound of formula (I)\nas §2, with “form D” for “form C”, “Table 17” for “Table 16”\nas §2, with “form E” for “form C”, “Table 18” for “Table 16”"}}, "data": [{"smiles": "NC(=O)[C@H]1CCCc2c1[nH]c1ccc(Cl)cc21", "note": "[Crystal form F, (S)-6-chloro-2,3,4,9-tetrahydro-1H-carbazole-carboxamide]", "values": [{"measurement": "crystal form after competitive suspension slurrying", "setting": "[1]; isopropanol, isopropyl acetate, and acetonitrile, 5°C, 25°C, 50°C, 3 days", "result": "converted into the crystal form F"}, {"measurement": "relative stability of crystal forms", "setting": "[1]; temperature range of 5°C to 50°C", "result": "more stable than the crystal forms B and G"}, {"measurement": "Hygroscopicity Conclusion", "setting": "[2]; DVS at 25°C, Table 13", "result": "No hygroscopicity"}, {"measurement": "1st adsorption Percentage of weight change", "setting": "[2]; Relative humidity 0% at 25°C", "result": 0.1, "unit": "%"}, {"measurement": "1st desorption Percentage of weight change", "setting": "[2]; Relative humidity 0% at 25°C", "result": 0.1, "unit": "%"}, {"measurement": "2nd adsorption Percentage of weight change", "setting": "[2]; Relative humidity 0% at 25°C", "result": 0.3, "unit": "%"}, {"measurement": "2nd desorption Percentage of weight change", "setting": "[2]; Relative humidity 0% at 25°C", "result": 0.3, "unit": "%"}, {"measurement": "1st adsorption Percentage of weight change", "setting": "[2]; Relative humidity 10% at 25°C", "result": 0.2, "unit": "%"}, {"measurement": "1st desorption Percentage of weight change", "setting": "[2]; Relative humidity 10% at 25°C", "result": 0.3, "unit": "%"}, {"measurement": "2nd adsorption Percentage of weight change", "setting": "[2]; Relative humidity 10% at 25°C", "result": 0.2, "unit": "%"}, {"measurement": "2nd desorption Percentage of weight change", "setting": "[2]; Relative humidity 10% at 25°C", "result": 0.3, "unit": "%"}, {"measurement": "1st adsorption Percentage of weight change", "setting": "[2]; Relative humidity 20% at 25°C", "result": 0.2, "unit": "%"}, {"measurement": "1st desorption Percentage of weight change", "setting": "[2]; Relative humidity 20% at 25°C", "result": 0.1, "unit": "%"}, {"measurement": "2nd adsorption Percentage of weight change", "setting": "[2]; Relative humidity 20% at 25°C", "result": 0.2, "unit": "%"}, {"measurement": "2nd desorption Percentage of weight change", "setting": "[2]; Relative humidity 20% at 25°C", "result": 0.4, "unit": "%"}, {"measurement": "1st adsorption Percentage of weight change", "setting": "[2]; Relative humidity 30% at 25°C", "result": 0.1, "unit": "%"}, {"measurement": "1st desorption Percentage of weight change", "setting": "[2]; Relative humidity 30% at 25°C", "result": 0.1, "unit": "%"}, {"measurement": "2nd adsorption Percentage of weight change", "setting": "[2]; Relative humidity 30% at 25°C", "result": 0.0, "unit": "%"}, {"measurement": "2nd desorption Percentage of weight change", "setting": "[2]; Relative humidity 30% at 25°C", "result": 0.1, "unit": "%"}, {"measurement": "1st adsorption Percentage of weight change", "setting": "[2]; Relative humidity 40% at 25°C", "result": 0.2, "unit": "%"}, {"measurement": "1st desorption Percentage of weight change", "setting": "[2]; Relative humidity 40% at 25°C", "result": 0.2, "unit": "%"}, {"measurement": "2nd adsorption Percentage of weight change", "setting": "[2]; Relative humidity 40% at 25°C", "result": 0.0, "unit": "%"}, {"measurement": "2nd desorption Percentage of weight change", "setting": "[2]; Relative humidity 40% at 25°C", "result": 0.4, "unit": "%"}, {"measurement": "1st adsorption Percentage of weight change", "setting": "[2]; Relative humidity 50% at 25°C", "result": 0.2, "unit": "%"}, {"measurement": "2nd desorption Percentage of weight change", "setting": "[2]; Relative humidity 50% at 25°C", "result": 0.2, "unit": "%"}, {"measurement": "1st adsorption Percentage of weight change", "setting": "[2]; Relative humidity 60% at 25°C", "result": 0.2, "unit": "%"}, {"measurement": "2nd desorption Percentage of weight change", "setting": "[2]; Relative humidity 60% at 25°C", "result": 0.2, "unit": "%"}, {"measurement": "1st adsorption Percentage of weight change", "setting": "[2]; Relative humidity 70% at 25°C", "result": 0.2, "unit": "%"}, {"measurement": "2nd desorption Percentage of weight change", "setting": "[2]; Relative humidity 70% at 25°C", "result": 0.2, "unit": "%"}, {"measurement": "1st adsorption Percentage of weight change", "setting": "[2]; Relative humidity 80% at 25°C", "result": 0.1, "unit": "%"}, {"measurement": "2nd desorption Percentage of weight change", "setting": "[2]; Relative humidity 80% at 25°C", "result": 0.0, "unit": "%"}, {"measurement": "1st adsorption Percentage of weight change", "setting": "[2]; Relative humidity 90% at 25°C", "result": 0.3, "unit": "%"}, {"measurement": "2nd desorption Percentage of weight change", "setting": "[2]; Relative humidity 90% at 25°C", "result": 0.1, "unit": "%"}, {"measurement": "1st adsorption Percentage of weight change", "setting": "[2]; Relative humidity 95% at 25°C", "result": 0.1, "unit": "%"}, {"measurement": "2nd desorption Percentage of weight change", "setting": "[2]; Relative humidity 95% at 25°C", "result": 0.1, "unit": "%"}, {"measurement": "XRPD after DVS testing", "setting": "[2]; after DVS cycle 40-0-95-0-40%RH at 25°C", "result": "Crystal form F"}, {"measurement": "Color", "setting": "[3]", "result": "No change"}, {"measurement": "Degradation (%)", "setting": "[3]", "result": "None"}, {"measurement": "Purity (%)", "setting": "[3]", "result": 99.8, "unit": "%"}, {"measurement": "Color", "setting": "[4]; 60°C, closed, 1 week", "result": "No change"}, {"measurement": "Degradation (%)", "setting": "[4]; 60°C, closed, 1 week", "result": "None"}, {"measurement": "Purity (%)", "setting": "[4]; 60°C, closed, 1 week", "result": 99.8, "unit": "%"}, {"measurement": "Purity (%)", "setting": "[4]; Initial", "result": 99.8, "unit": "%"}]}]}
